In ChEMBL document CHEMBL3124826, “Discovery of AMG 232, a potent, selective, and orally bioavailable MDM2-p53 inhibitor in clinical development” (J Med Chem, 2014):

Assay: Oral bioavailability in cynomolgus monkey
Assay type: ADME, organism-based, Macaca fascicularis
Conditions: in vivo

SMILES: CC(C)[C@@H](CS(=O)(=O)C(C)C)N1C(=O)[C@@](C)(CC(=O)O)C[C@H](c2cccc(Cl)c2)[C@H]1c1ccc(Cl)cc1 [NAVTEMADLIN]
- bioavailability: 51%
